Measurements from publication PMC11192711, “Automated radiosynthesis and preclinical evaluation of two new PSMA-617 derivatives radiolabelled via [^18F]AlF^2+ method” (EJNMMI Radiopharmacy and Chemistry, 2024).

System: LNCaP tumour-bearing NSG mice
Test: PET/CT in vivo biodistribution and tumour uptake in subcutaneous LNCaP prostate cancer xenograft model
Settings: n = 4; for Bone (SUV mean) / Brain (SUV mean) / Colon (SUV mean) / Gall bladder (SUV mean) / Heart (SUV mean) / Kidney (SUV mean) / Liver (SUV mean) / Lung (SUV mean) / Muscle (SUV mean) / Salivary gland (SUV mean) / Small instestine (SUV mean): LNCaP NSG male mice, i.v., PET/CT; for ratio between tumour and muscle (tumour SUV max/muscle SUV mean) / uptake in the tumour expressed as SUV max: LNCaP tumour, NSG mice
Experimental: The uptake of [^18F]F-PSMA-1007 and [^18F]F-PSMA-617-NODA ([^18F]1) was compared in vivo in a xenograft model of human prostate cancer obtained using LNCaP cells which are PSMA positive, as confirmed by real time PCR-analysis (Additional file 1: S69A). LNCaP tumour-bearing NSG mice were injected i.v. with either [^18F]F-PSMA-1007 or [^18F]F-PSMA-617-NODA (~ 3.8 MBq/mouse, ~ 20 pmol for [^18F]F-PSMA-1007 and ~ 50 pmol [^18F]1). Radiotracer uptake was assessed after 10, 60 and 120 min post injection by whole-body PET/CT acquisitions.
Total body biodistribution of [^18F]F-PSMA-1007, [^18F]F-PSMA-617-NODA and [^18F]F-PSMA-617-RESCA was evaluated in vivo using imaging PET/CT. [^18F]F-PSMA-617-NODA uptake was compared to that of the [^18F]F-PSMA-1007 in a PSMA positive prostate tumour xenograft model (LNCaP). [^18F]F-PSMA-617-NODA and [^18F]F-PSMA-617-RESCA uptake were also evaluated using an orthotopic glioma model (Gli36ΔEGFR).
Animal experiments were carried out in compliance with institutional guidelines for the care and the use of experimental animals, which have been authorized by the Italian Ministry of Health (n° 378/2019-PR and 817/2021-PR). The animals were housed at constant temperature (23 °C) and relative humidity (40%) under a regular light/dark cycle with food and water available ad libitum. Seven to eight weeks old male NSG mice (Charles River Laboratories Italia s.r.l., Italy) were subcutaneously inoculated in the right flank with 5 × 10^6 of PSMA‐positive human prostate cancer cells (LNCaP) suspended in matrigel (1: 1, total volume 200 ul). The growth tumour was monitored periodically with calliper and tumour volume was calculated using the following formula: […]
When the tumour volume was about 230.8 ± 60.3 mm^3 (approximately 15 days after tumour cells inoculation), 4 animals performed an in vivo biodistribution of [^18F]F-PSMA-1007 and [^18F]F-PSMA-617-NODA, on successive but non-consecutive days, using PET/CT.
Mice were injected into a tail vein with 3.8 ± 0.1 MBq of [^18F]F-PSMA-1007, 4.0 ± 0.2 MBq of [^18F]F-PSMA-617-NODA ([^18F]1) and 3.8 ± 0.1 MBq of [^18F]F-PSMA-617-RESCA ([^18F]2), respectively.
Total body PET/CT acquisitions were performed using PET/CT tomographs dedicated to small animals, X-ß-CUBE (Molecubes, Gent, Belgium) after 10, 60 and 120 min from tracer injection. Each acquisition lasted 30 min and mice were maintained anesthetized (4% isoflurane in induction and 2% in maintenance in air) during acquisition.
Image quantification analysis was performed with PMOD 4.105 software (Zurich, Switzerland). Volumes of interest (VOIs) were drawn on peripheral organs (tumour, thoracic muscle, heart, liver, kidney, salivary glands, lung, small intestine, colon, bone, gall bladder) and on the healthy brain using CT images. For the glioma model, PET/CT images were co-registered to MRI images and two different VOIs were defined: (1) a control VOI covering the healthy left striatum (volume 4 mm^3) was drawn on the axial MR images, adjusted on the other imaging planes and then copied on the PET images of each mouse; (2) a second glioma-covering VOI was drawn in the tumour-affected brain hemisphere and centered on mice lesions.
For quantification, Standardized Uptake Value (SUV) was calculated according to the formula:
SUV = organ concentration activity [MBq/g]/(injected activity [MBq]/animal weight [g]).
The data were expressed as standardized-uptake-values (SUVmean and SUVmax) and as tumour-to-muscle (T/M) and tumour-to-blood (T/B) ratio in PCa model and as tumour-to-contralateral (T/Cl) ratio in glioma model.

O=C(O)CC[C@H](NC(=O)N[C@@H](CCCCNC(=O)[C@H](Cc1ccc2ccccc2c1)NC(=O)c1ccc(CNC(=O)[C@H](CCC(=O)O)NC(=O)[C@H](CCC(=O)O)NC(=O)c2ccc([18F])nc2)cc1)C(=O)O)C(=O)O [[^18F]F-PSMA-1007, reference compound]
Bone (SUV mean) (10 min p.i.): 0.36 ± 0.09 | Brain (SUV mean) (10 min p.i.): 0.12 ± 0.02 | Colon (SUV mean) (10 min p.i.): 0.35 ± 0.27 | Gall bladder (SUV mean) (10 min p.i.): 0.99 ± 0.40 | Heart (SUV mean) (10 min p.i.): 0.38 ± 0.09 | Kidney (SUV mean) (10 min p.i.): 9.55 ± 2.63 | Liver (SUV mean) (10 min p.i.): 0.50 ± 0.04 | Lung (SUV mean) (10 min p.i.): 0.46 ± 0.09 | Muscle (SUV mean) (10 min p.i.): 0.23 ± 0.03 | Salivary gland (SUV mean) (10 min p.i.): 1.40 ± 0.25 | Small instestine (SUV mean) (10 min p.i.): 0.60 ± 0.05 | Bone (SUV mean) (60 min p.i.): 0.26 ± 0.09 | Brain (SUV mean) (60 min p.i.): 0.09 ± 0.03 | Colon (SUV mean) (60 min p.i.): 0.28 ± 0.14 | Gall bladder (SUV mean) (60 min p.i.): 1.02 ± 0.43 | Heart (SUV mean) (60 min p.i.): 0.28 ± 0.06 | Kidney (SUV mean) (60 min p.i.): 12.04 ± 2.49 | Liver (SUV mean) (60 min p.i.): 0.33 ± 0.06 | Lung (SUV mean) (60 min p.i.): 0.40 ± 0.16 | Muscle (SUV mean) (60 min p.i.): 0.20 ± 0.04 | Salivary gland (SUV mean) (60 min p.i.): 1.40 ± 0.20 | Small instestine (SUV mean) (60 min p.i.): 0.49 ± 0.12 | Bone (SUV mean) (120 min p.i.): 0.21 ± 0.08 | Brain (SUV mean) (120 min p.i.): 0.10 ± 0.03 | Colon (SUV mean) (120 min p.i.): 0.26 ± 0.08 | Gall bladder (SUV mean) (120 min p.i.): 0.75 ± 0.48 | Heart (SUV mean) (120 min p.i.): 0.24 ± 0.03 | Kidney (SUV mean) (120 min p.i.): 14.49 ± 1.41 | Liver (SUV mean) (120 min p.i.): 0.21 ± 0.02 | Lung (SUV mean) (120 min p.i.): 0.31 ± 0.07 | Muscle (SUV mean) (120 min p.i.): 0.15 ± 0.05 | Salivary gland (SUV mean) (120 min p.i.): 1.58 ± 0.12 | Small instestine (SUV mean) (120 min p.i.): 0.30 ± 0.07 | ratio between tumour and muscle (tumour SUV max/muscle SUV mean) (60 min p.i.): 7.46 ± 1.55 | uptake in the tumour expressed as SUV max (60 min p.i.): 1.48 ± 0.29 | ratio between tumour and muscle (tumour SUV max/muscle SUV mean) (120 min p.i.): 11.99 ± 6.16 | uptake in the tumour expressed as SUV max (120 min p.i.): 1.60 ± 0.44
